{"source": "patent US6747063B2", "about": "“Combination therapy for treatment of erectile dysfunction” (Cellegy Pharmaceuticals, Inc., priority 1996, dated 2004)", "key": {"[1]": {"settings": "in vivo; cited from earlier work"}, "[2]": {"test_system": "human cavernous artery and cavernosal smooth muscle", "settings": "cited from earlier work; for interaction of relaxant effects of the two agents: human cavernous artery and cavernosal smooth muscle; for relaxation response: isolated cavernous artery and corpus cavernosum"}, "[3]": {"test_system": "penile pain in patients with previously diagnosed ED", "assay": "Patient-reported drug-related pain after intracavernous injection, patients with no prior PGE1", "type": "in vivo, human", "settings": "Phase 2; IC PGE1 5 and 15 μg alone or with SNP 50 μg", "description": "Patients were fifted with the Rigiscan™ tumescence and rigidity recording device. The patients were injected with the intracavernous (IC) drug using up to 2 different doses (PGE1 alone or in combination with sodium nitroprusside (SNP50 μg)) and monitored in real-time for their erectile response. Patients were only given a second injection (higher dose PGE1) if the response to the first injection was less than 70% of maximum tumescence and rigidity. In addition, patients were asked to report any occurrence of pain specific to the injection, but not related to acute discomfort associated with the needle prick."}, "[4]": {"test_system": "penile pain in patients with prior use of PGE1", "assay": "Penile pain in patients with clinical history of pain with prostaglandin therapy (case reports)", "settings": "human, in vivo", "description": "(§1) As detailed below, one of three different modes of administration of NO producing agents were used depending upon the patient. In particular, each of these individuals received a NO donor either through the use of a nitrospray such as Nitrolingual™ or a transdermal patch delivering a NO donor compound, and in three cases, a combination of PGE1 and 50 μg of SNP (in saline or phosphate buffered saline (PBS))."}, "[5]": {"test_system": "penile erection in patients with prior use of PGE1", "assay": "Erection in patients with clinical history of pain with prostaglandin therapy (case reports)", "type": "in vivo, human", "settings": "Case No. 2; 10 μg PGE1 at home", "description": "as §1"}, "[6]": {"test_system": "penile erection in patients with previously diagnosed ED", "assay": "Erectile response (Rigiscan tumescence and rigidity) after intracavernous injection, patients with no prior PGE1", "type": "in vivo, human", "settings": "Phase 1 (n=9)"}, "[7]": {"test_system": "penile pain in patients using PGE1", "settings": "cited from earlier work"}}, "note": "Values joined by “and” are separate entries in the source; they are usually repeats but may differ in a detail not shown here. Equal values may be shown once. No end group written: not given here.", "data": [{"molecule": "O=[N+]([O-])OCC(CO[N+](=O)[O-])O[N+](=O)[O-]", "note": "[glyceryl trinitrate]", "values": [{"measurement": "concentration in plasma", "setting": "[1]", "value": "0.2 to 0.4", "unit": "ng/mL"}]}, {"molecule": "vasoactive intestinal peptide (HSDAVFTDNYTRLRKQMAVKKYLNSILN; ends and bridges not checked; UniProt P01282 125-152, looked up) [VIP]", "values": [{"measurement": "interaction of relaxant effects of the two agents", "setting": "[2]", "value": "non-synergistic independent relaxant effects"}, {"measurement": "relaxation response", "setting": "[2]", "value": "not capable of causing concentration dependent relaxation responses"}]}, {"molecule": "CCCCC[C@H](O)/C=C/[C@H]1[C@H](O)CC(=O)[C@@H]1CCCCCCC(=O)O", "note": "[PGE1, prostaglandin E1]", "values": [{"measurement": "patients who experienced drug-related pain", "setting": "[3]", "value": "None"}, {"measurement": "duration of pain", "setting": "[4]", "value": "three to four hours"}, {"measurement": "erectile response", "setting": "[5]", "value": "poor response"}, {"measurement": "patients with a poor response to both injections", "setting": "[6]; IC PGE1 5 μg at 1st visit, PGE1 5 μg+SNP 50 μg at 2nd visit", "value": "4 of 9"}, {"measurement": "patients who experienced full tumescence", "setting": "[6]; lowest dose of PGE1 alone (5 μg IC)", "value": "2/9"}, {"measurement": "patients reporting a pain response", "setting": "[7]; repeated / prolonged use of PGE1", "value": "40 to 45% and 40-45%"}, {"measurement": "individuals with a pain response / frequency of pain per injection", "setting": "[7]; single use of PGE1", "value": "3 to 10", "unit": "%"}, {"measurement": "men reporting penile pain", "setting": "[7]; transurethral administration, clinic testing", "value": 35.7, "unit": "%"}]}, {"molecule": "[NH-]c1c[n+](N2CCOCC2)no1", "note": "[SIN-1, 3-morpholinosydnonimine molsidomine]", "values": [{"measurement": "interaction of relaxant effects of the two agents", "setting": "[2]", "value": "non-synergistic independent relaxant effects"}, {"measurement": "relaxation response", "setting": "[2]", "value": "capacity to induce complete relaxations"}]}]}
